The compounds below were run on mitochondrial fatty acid oxidation (rat heart mitochondria) (assay: Palmitoyl CoA oxidation in isolated rat heart mitochondria). Settings: 100 μM compound; 15 min at 30° C; DMSO control.
Type: biochemical
Description: Compounds of this invention were evaluated in a rat heart mitochondiral assay as set forth below.
Rat heart mitochondria were isolated by the method of Nedergard and Cannon (methods in Enzymol. 55, 3, 1979).
Palmitoyl CoA oxidation—The Palmityl CoA oxidation was carried out in a total volume of 100 micro liters containing the following agents: 110 mM KCl, 33 mM Tris buffer at pH 8, 2 mM KPi, 2 mM MgCl2, 0.1 mM EDTA, 14.7 microM defatted BSA, 0.5 mM malic acid, 13 mM carnitine, 1 mM ADP, 52 micrograms of mitochondrial protein, and 16 microM 1-C14 palmitoyl CoA (Sp. Activity 60 mCi/mmole; 20 microCi/ml, using 5 microliters per assay). The compounds of this invention were added in a DMSO solution at the following concentrations: 100 microM, 30 microM, and 3 microM. In each assay, a DMSO control was used. After 15 min at 30° C., the enzymatic reaction was centrifuged (20,000 g for 1 min), and 70 microliters of the supernatant was added to an activated reverse phase silicic acid column (approximately 0.5 ml of silicic acid). The column was eluted with 2 ml of water, and 0.5 ml of the eluent was used for scintillation counting to determine the amount of C^14 trapped as C^14 bicarbonate ion.

Compound | Inhibition of mitochondrial fatty acid oxidation using palmitoyl CoA as substrate - % of Control
C[C@H]1CN(CC(=O)Nc2ccccc2)CCN1C[C@H](O)COc1ccccc1F [Compound 33, 2-{(3S)-4-[(2S)-3-(2-fluorophenoxy)-2-hydroxypropyl]-3-methylpiperazinyl}-N-phenylacetamide] | 63%
CSc1cccc(NC(=O)CN2CCN(C[C@H](O)COc3ccccc3F)[C@@H](C)C2)c1 [Compound 39, 2-{(3S)-4-[(2S)-3-(2-fluorophenoxy)-2-hydroxypropyl]-3-methylpiperazinyl}-N-(3-methylthiophenyl)acetamide] | 60%
C[C@H]1CN(CC(=O)Nc2ccc(Cl)c(C(F)(F)F)c2)CCN1C[C@H](O)COc1ccccc1F [Compound 55, 2-{(3S)-4-[(2S)-3-(2-fluorophenoxy)-2-hydroxypropyl]-3-methylpiperazinyl}-N-[4-chloro-3-(trifluoromethyl)phenyl]acetamide] | 11%
C[C@H]1CN(CC(=O)Nc2ccc(C(F)(F)F)cc2)CCN1C[C@H](O)COc1ccccc1F [Compound 54, 2-{(3S)-4-[(2S)-3-(2-fluorophenoxy)-2-hydroxypropyl]-3-methylpiperazinyl}-N-[4-(trifluoromethyl)phenyl]acetamide] | 75%
C[C@H]1CN(CC(=O)Nc2ccc(F)cc2)CCN1C[C@H](O)COc1ccccc1F [Compound 50, 2-{(3S)-4-[(2S)-3-(2-fluorophenoxy)-2-hydroxypropyl]-3-methylpiperazinyl}-N-(4-fluorophenyl)acetamide] | 80%
C[C@H]1CN(CC(=O)Nc2ccc3c(c2)CCC3)CCN1C[C@H](O)COc1ccccc1F [Compound 29, 2-{(3S)-4-[(2S)-3-(2-fluorophenoxy)-2-hydroxypropyl]-3-methylpiperazinyl}-N-indan-5-ylacetamide] | 51%
C[C@H]1CN(CC(=O)Nc2ccc(Cl)cc2)CCN1C[C@H](O)COc1ccccc1F [Compound 44, 2-{(3S)-4-[(2S)-3-(2-fluorophenoxy)-2-hydroxypropyl]-3-methylpiperazinyl}-N-(4-chlorophenyl)acetamide] | 81%
C[C@H]1CN(CC(=O)Nc2cc(Cl)cc(Cl)c2)CCN1C[C@H](O)COc1ccccc1F [Compound 46, 2-{(3S)-4-[(2S)-3-(2-fluorophenoxy)-2-hydroxypropyl]-3-methylpiperazinyl}-N-(3,5-dichlorophenyl)acetamide] | 7%
C[C@H]1CN(CC(=O)Nc2ccc(N(C)C)cc2)CCN1C[C@H](O)COc1ccccc1F [Compound 41, 2-{(3S)-4-[(2S)-3-(2-fluorophenoxy)-2-hydroxypropyl]-3-methylpiperazinyl}-N-[4-(dimethylamino)phenyl]acetamide] | 64%
C[C@H]1CN(CC(=O)Nc2ccc(N3CCOCC3)cc2)CCN1C[C@H](O)COc1ccccc1F [Compound 57, 2-{(3S)-4-[(2S)-3-(2-fluorophenoxy)-2-hydroxypropyl]-3-methylpiperazinyl}-N-(4-morpholin-4-ylphenyl)acetamide] | 73%
Cc1ccccc1NC(=O)CN1CCN(C[C@H](O)COc2ccccc2F)[C@@H](C)C1 [Compound 37, 2-{(3S)-4-[(2S)-3-(2-fluorophenoxy)-2-hydroxypropyl]-3-methylpiperazinyl}-N-(2-methylphenyl)acetamide] | 55%
COc1ccccc1NC(=O)CN1CCN(C[C@H](O)COc2ccccc2F)[C@@H](C)C1 [Compound 53, 2-{(3S)-4-[(2S)-3-(2-fluorophenoxy)-2-hydroxypropyl]-3-methylpiperazinyl}-N-(2-methoxyphenyl)acetamide] | 81%
Cc1cccc(C)c1NC(=O)CN1CCN(C[C@H](O)COc2ccccc2F)[C@@H](C)C1 [Compound 25, 2-{(3S)-4-[(2S)-3-(2-fluorophenoxy)-2-hydroxypropyl]-3-methylpiperazinyl}-N-(2,6-dimethylphenyl)acetamide] | 77%
C[C@H]1CN(CC(=O)Nc2ccc(Cl)cc2F)CCN1C[C@H](O)COc1ccccc1F [Compound 61, 2-{(3S)-4-[(2S)-3-(2-fluorophenoxy)-2-hydroxypropyl]-3-methylpiperazinyl}-N-(4-chloro-2-fluorophenyl)acetamide] | 65%
COc1cc(NC(=O)CN2CCN(C[C@H](O)COc3ccccc3F)[C@@H](C)C2)cc(OC)c1OC [Compound 59, 2-{(3S)-4-[(2S)-3-(2-fluorophenoxy)-2-hydroxypropyl]-3-methylpiperazinyl}-N-(3,4,5-trimethoxyphenyl)acetamide] | 76%
C[C@H]1CN(CC(=O)Nc2ccc(C#N)cc2)CCN1C[C@H](O)COc1ccccc1F [Compound 51, 2-{(3S)-4-[(2S)-3-(2-fluorophenoxy)-2-hydroxypropyl]-3-methylpiperazinyl}-N-(4-cyanophenyl)acetamide] | 99%
COc1ccc(NC(=O)CN2CCN(C[C@H](O)COc3ccccc3F)[C@@H](C)C2)cc1OC [Compound 60, 2-{(3S)-4-[(2S)-3-(2-fluorophenoxy)-2-hydroxypropyl]-3-methylpiperazinyl}-N-(3,4-dimethoxyphenyl)acetamide] | 81%
COc1cc(NC(=O)CN2CCN(C[C@H](O)COc3ccccc3F)[C@@H](C)C2)cc(OC)c1 [Compound 56, 2-{(3S)-4-[(2S)-3-(2-fluorophenoxy)-2-hydroxypropyl]-3-methylpiperazinyl}-N-(3,5-dimethoxyphenyl)acetamide] | 83%
COc1ccc(NC(=O)CN2CCN(C[C@H](O)COc3ccccc3F)[C@@H](C)C2)c(OC)c1 [Compound 42, 2-{(3S)-4-[(2S)-3-(2-fluorophenoxy)-2-hydroxypropyl]-3-methylpiperazinyl}-N-(2,4-dimethoxyphenyl)acetamide] | 68%
C[C@H]1CN(CC(=O)Nc2ccc(Cl)c3ccccc23)CCN1C[C@H](O)COc1ccccc1F [Compound 31, 2-{(3S)-4-[(2S)-3-(2-fluorophenoxy)-2-hydroxypropyl]-3-methylpiperazinyl}-N-(4-chloronaphthyl)acetamide] | 87%
C[C@H]1CN(CC(=O)Nc2ccc(Cl)c(Cl)c2)CCN1C[C@H](O)COc1ccccc1F [Compound 43, 2-{(3S)-4-[(2S)-3-(2-fluorophenoxy)-2-hydroxypropyl]-3-methylpiperazinyl}-N-(3,4-dichlorophenyl)acetamide] | 19%
C[C@H]1CN(CC(=O)Nc2c(Cl)cccc2Cl)CCN1C[C@H](O)COc1ccccc1F [Compound 26, 2-{(3S)-4-[(2S)-3-(2-fluorophenoxy)-2-hydroxypropyl]-3-methylpiperazinyl}-N-(2,6-dichlorophenyl)acetamide] | 0%
C[C@H]1CN(CC(=O)Nc2cccc3ccccc23)CCN1C[C@H](O)COc1ccccc1F [Compound 30, 2-{(3S)-4-[(2S)-3-(2-fluorophenoxy)-2-hydroxypropyl]-3-methylpiperazinyl}-N-naphthylacetamide] | 16%
Cc1ccc(NC(=O)CN2CCN(C[C@H](O)COc3ccccc3F)[C@@H](C)C2)c(Cl)c1 [Compound 35, 2-{(3S)-4-[(2S)-3-(2-fluorophenoxy)-2-hydroxypropyl]-3-methylpiperazinyl}-N-(2-chloro-4-methylphenyl)acetamide] | 45%
COc1cc(Cl)c(C)cc1NC(=O)CN1CCN(C[C@H](O)COc2ccccc2F)[C@@H](C)C1 [Compound 40, 2-{(3S)-4-[(2S)-3-(2-fluorophenoxy)-2-hydroxypropyl]-3-methylpiperazinyl}-N-(4-chloro-2-methoxy-5-methylphenyl)acetamide] | 23%
C=C(C)c1ccccc1NC(=O)CN1CCN(C[C@H](O)COc2ccccc2F)[C@@H](C)C1 [Compound 36, 2-{(3S)-4-[(2S)-3-(2-fluorophenoxy)-2-hydroxypropyl]-3-methylpiperazinyl}-N-[2-(1-methylvinyl)phenyl]acetamide] | 61%
Cc1cccc(C)c1NC(=O)CN1CCN(CC(O)CCOc2ccc(F)cc2)CC1 (stereo not shown) [Compound 21, N-(2,6-dimethylphenyl)-2-{4-[4-(4-fluorophenoxy)-2-hydroxybutyl]-piperazinyl}acetamide] | 87%
C[C@H]1CN(CC(=O)Nc2ccccc2-n2cccc2)CCN1C[C@H](O)COc1ccccc1F [Compound 32, 2-{(3S)-4-[(2S)-3-(2-fluorophenoxy)-2-hydroxypropyl]-3-methylpiperazinyl}-N-(2-pyrrolylphenyl)acetamide] | 74%

— patent publication US6677336B2, “Substituted piperazine compounds” (CV Therapeutics, Inc., priority 2000, dated 2004)
